The values that follow come from PubChem BioAssay AID248 (DTP/NCI, 2004).

The experiment concerns L1210 leukemia ip in BDF1 mice, survival T/C. Briefly: NCI In Vivo Anticancer Drug Screen. Data for tumor model L1210 Leukemia (intraperitoneal) in B6D2F1 (BDF1) mice. To be noted: endpoint: mean survival time, higher = longer survival. The gist of the method:
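Each compound was tested against a transplantable tumor grown in mice. The endpoint was survival, with treated animals benchmarked against vehicle controls as a simple ratio.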

[1] abbreviates: dose: 100.0 mg/kg/injection, schedule: Q04DX002 (ip), vehicle: Klucel (hydroxypropylcellulose) (HPC).
Where [2] appears, read: dose: 200.0 mg/kg/injection, schedule: Q04DX002 (ip), vehicle: Klucel (hydroxypropylcellulose) (HPC).
Setting [3] is: dose: 400.0 mg/kg/injection, schedule: Q04DX002 (ip), vehicle: Klucel (hydroxypropylcellulose) (HPC).
Setting [4] is: dose: 100.0 mg/kg/injection, schedule: Q04DX003 (ip), vehicle: saline with Tween-80.
Where [5] appears, read: dose: 200.0 mg/kg/injection, schedule: Q04DX003 (ip), vehicle: saline with Tween-80.
The mark [6] stands for this setting: dose: 400.0 mg/kg/injection, schedule: Q04DX003 (ip), vehicle: saline with Tween-80.
Where [7] appears, read: dose: 100.0 mg/kg/injection, schedule: Q04DX003 (ip), vehicle: Klucel (hydroxypropylcellulose) (HPC).
Setting [8] is: dose: 200.0 mg/kg/injection, schedule: Q04DX003 (ip), vehicle: Klucel (hydroxypropylcellulose) (HPC).
The mark [9] stands for this setting: dose: 100.0 mg/kg/injection, schedule: Q01DX001 (ip), vehicle: saline.
Where [10] appears, read: dose: 200.0 mg/kg/injection, schedule: Q01DX001 (ip), vehicle: saline.

“And” between values parts separate entries of the source, which are not always exact repeats. Identical values can stand only once. Inconclusive results and toxic doses are left out.

As for `CC(C)(C)c1cc2c(cc1O)C(C)(C)CCC2(C)C`, the T/C was 105 % of control under setting [1], 105 % of control under setting [2] and 98 % of control under setting [3].

As to `CNC(=O)NCc1ccc(Cl)cc1`, the T/C reads like this: under setting [4], 105 % of control; under setting [5], 98 % of control; under setting [6], 107 % of control.

In the case of `CCc1cccc(CC)c1NC(=O)c1ccccc1Cl`, the T/C reads like this: under setting [1], 102 % of control; under setting [2], 97 % of control; under setting [3], 94 % of control.

As for `CC(=O)Nc1nc2oc(C)nc2c(=O)[nH]1`, the T/C is, setting by setting: (dose: 100.0 mg/kg/injection, schedule: Q01DX001 (ip), vehicle: Klucel (hydroxypropylcellulose) (HPC)) 104 % of control; (dose: 200.0 mg/kg/injection, schedule: Q01DX001 (ip), vehicle: Klucel (hydroxypropylcellulose) (HPC)) 97 % of control; (dose: 400.0 mg/kg/injection, schedule: Q01DX001 (ip), vehicle: Klucel (hydroxypropylcellulose) (HPC)) 103 % of control.

Regarding `Cc1ccc(NC2=C(Cl)C(=O)C(Nc3ccc(C)cc3)=C(Cl)C2=O)cc1`, the T/C runs as follows: (dose: 50.0 mg/kg/injection, schedule: Q01DX001 (ip), vehicle: carboxymethylcellulose (CMC)) 97 % of control; (dose: 100.0 mg/kg/injection, schedule: Q01DX001 (ip), vehicle: carboxymethylcellulose (CMC)) 95 % of control; (dose: 200.0 mg/kg/injection, schedule: Q01DX001 (ip), vehicle: carboxymethylcellulose (CMC)) 90 % of control; (dose: 400.0 mg/kg/injection, schedule: Q01DX001 (ip), vehicle: carboxymethylcellulose (CMC)) 92 % of control.

`COc1cc2cc(-c3cc(OC)c(OC)c(OC)c3)c3c(c2cc1OC)CNC3`: the T/C (dose: 12.5 mg/kg/injection, schedule: Q01DX009 (ip), vehicle: water) is 103 % of control; the T/C (dose: 25.0 mg/kg/injection, schedule: Q01DX009 (ip), vehicle: water) was 93 % of control; the T/C (dose: 50.0 mg/kg/injection, schedule: Q01DX009 (ip), vehicle: water) is 97 % of control; the T/C (dose: 100.0 mg/kg/injection, schedule: Q01DX009 (ip), vehicle: water) is 102 % of control and 86 % of control; the T/C (dose: 100.0 mg/kg/injection, schedule: Q04DX003 (ip), vehicle: water) was 102 % of control; the T/C (dose: 200.0 mg/kg/injection, schedule: Q04DX003 (ip), vehicle: water) is 98 % of control. Moreover, the T/C (dose: 400.0 mg/kg/injection, schedule: Q04DX003 (ip), vehicle: water) is 109 % of control.

Consider `CS(=O)(=O)OCCN(CCOS(C)(=O)=O)c1ccc(N=O)c(F)c1`, for which the T/C is, setting by setting: (dose: 7.0 mg/kg/injection, schedule: Q01DX001 (ip), vehicle: saline) 151 % of control; (dose: 40.0 mg/kg/injection, schedule: Q01DX001 (ip), vehicle: saline) 98 % of control; (dose: 80.0 mg/kg/injection, schedule: Q01DX001 (ip), vehicle: saline) 93 % of control.

Consider `CCCNCCN`, for which the T/C is 98 % of control (dose: 50.0 mg/kg/injection, schedule: Q01DX009 (ip), vehicle: saline); 102 % of control (dose: 100.0 mg/kg/injection, schedule: Q01DX009 (ip), vehicle: saline); 97 % of control (dose: 100.0 mg/kg/injection, schedule: Q04DX003 (ip), vehicle: saline); 99 % of control (dose: 200.0 mg/kg/injection, schedule: Q04DX003 (ip), vehicle: saline).

`CCCNC(=NC)c1ccc(NC(=O)c2ccc(C(=O)Nc3ccc(C(=NC)NCCC)cc3)cc2)cc1`: the T/C (dose: 1.6 mg/kg/injection, schedule: Q01DX Z (ip), vehicle: saline) is 94 % of control; the T/C (dose: 2.4 mg/kg/injection, schedule: Q01DX Z (ip), vehicle: saline) is 111 % of control; the T/C (dose: 3.6 mg/kg/injection, schedule: Q01DX Z (ip), vehicle: saline) is 107 % of control and 120 % of control; the T/C (dose: 5.5 mg/kg/injection, schedule: Q01DX Z (ip), vehicle: saline) was 156 % of control and 162 % of control; the T/C (dose: 8.3 mg/kg/injection, schedule: Q01DX Z (ip), vehicle: saline) is 151 % of control and 172 % of control; the T/C (dose: 12.5 mg/kg/injection, schedule: Q## X000 (oral), vehicle: saline) is 103 % of control. Also, the T/C reads like this: (dose: 25.0 mg/kg/injection, schedule: Q## X000 (oral), vehicle: saline) 100 % of control; (dose: 50.0 mg/kg/injection, schedule: Q## X000 (oral), vehicle: saline) 101 % of control; (dose: 250.0 mg/kg/injection, schedule: Q01DX010 (oral), vehicle: saline) 107 % of control; (dose: 500.0 mg/kg/injection, schedule: Q01DX010 (oral), vehicle: saline) 114 % of control.

Regarding `COc1ccc(OC)c(NC(=O)NCCCl)c1`, the T/C under setting [7] was 101 % of control; the T/C under setting [8] was 98 % of control; the T/C (dose: 400.0 mg/kg/injection, schedule: Q04DX003 (ip), vehicle: Klucel (hydroxypropylcellulose) (HPC)) is 87 % of control.

`C=CCc1cc(CNC(C)C)c(O)c(OC)c1`: the T/C (dose: 25.0 mg/kg/injection, schedule: Q04DX003 (ip), vehicle: Klucel (hydroxypropylcellulose) (HPC)) is 96 % of control; the T/C (dose: 50.0 mg/kg/injection, schedule: Q04DX003 (ip), vehicle: Klucel (hydroxypropylcellulose) (HPC)) is 88 % of control; the T/C under setting [7] is 101 % of control and 92 % of control.

In the case of `O=CNC(CSSCC(NC=O)C(=O)O)C(=O)O` (configuration not stated), the T/C under setting [4] was 101 % of control, the T/C under setting [5] was 103 % of control and the T/C under setting [6] is 90 % of control.

Take `CSc1ncnc2c1ncn2CO`: the T/C (dose: 30.0 mg/kg/injection, schedule: Q01DX009 (ip), vehicle: Klucel (hydroxypropylcellulose) (HPC)) was 113 % of control; the T/C (dose: 46.0 mg/kg/injection, schedule: Q01DX009 (ip), vehicle: carboxymethylcellulose (CMC)) is 122 % of control; the T/C (dose: 55.0 mg/kg/injection, schedule: Q01DX009 (ip), vehicle: saline) is 119 % of control; the T/C (dose: 60.0 mg/kg/injection, schedule: Q01DX009 (ip), vehicle: Klucel (hydroxypropylcellulose) (HPC)) is 116 % of control; the T/C (dose: 110.0 mg/kg/injection, schedule: Q01DX001 (ip), vehicle: saline) is 115 % of control; the T/C (dose: 120.0 mg/kg/injection, schedule: Q01DX009 (ip), vehicle: Klucel (hydroxypropylcellulose) (HPC)) was 109 % of control. Further, the T/C was 164 % of control (dose: 125.0 mg/kg/injection, schedule: Q01DX009 (ip), vehicle: saline); 120 % of control (dose: 165.0 mg/kg/injection, schedule: Q01DX001 (ip), vehicle: saline); 120 % of control (dose: 250.0 mg/kg/injection, schedule: Q01DX001 (ip), vehicle: saline).

Regarding `CC1C2CCC(C2)C(C)C1Br` (configuration not stated), the T/C (dose: 100.0 mg/kg/injection, schedule: Q01DX009 (ip), vehicle: other) is 99 % of control; the T/C (dose: 100.0 mg/kg/injection, schedule: Q04DX003 (ip), vehicle: other) was 102 % of control; the T/C (dose: 200.0 mg/kg/injection, schedule: Q01DX009 (ip), vehicle: other) was 96 % of control; the T/C (dose: 200.0 mg/kg/injection, schedule: Q04DX003 (ip), vehicle: other) is 102 % of control; the T/C (dose: 400.0 mg/kg/injection, schedule: Q01DX009 (ip), vehicle: other) was 96 % of control; the T/C (dose: 400.0 mg/kg/injection, schedule: Q04DX003 (ip), vehicle: other) was 109 % of control.

Turning to `c1ccc2cc(NCNc3ccc4ccccc4c3)ccc2c1`, the T/C is, setting by setting: under setting [9], 100 % of control; under setting [10], 95 % of control; (dose: 400.0 mg/kg/injection, schedule: Q01DX001 (ip), vehicle: saline) 100 % of control.

As for `COC(=O)/C=C(\C)Nc1ccc(Cc2ccc(NC(C)=O)cc2)cc1`, the T/C is, setting by setting: under setting [9], 95 % of control; under setting [10], 98 % of control.

Consider `O=C(O)c1c(F)c(F)c(Oc2c(F)c(F)c(F)c(F)c2F)c(F)c1F`, for which the T/C runs as follows: under setting [7], 95 % of control; under setting [8], 93 % of control.

For `Nc1nccnc1Cl`, the T/C (dose: 75.0 mg/kg/injection, schedule: Q01DX001 (ip), vehicle: acetone) was 104 % of control; the T/C (dose: 150.0 mg/kg/injection, schedule: Q01DX001 (ip), vehicle: acetone) was 104 % of control; the T/C (dose: 300.0 mg/kg/injection, schedule: Q01DX001 (ip), vehicle: acetone) was 96 % of control.

For `CC(C)(C)NC(=O)NCc1cccc(Cl)c1`, the T/C was 100 % of control under setting [1], 107 % of control under setting [2] and 96 % of control under setting [3].
